# Source: PubChem BioAssay AID624360 (Broad Institute, 2012)
# Results filed as inconclusive are left out. Calls of active or inactive are those of the source.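 How the source made its calls: active means fitted curve falls past -35% activity change at a concentration under twice the top valid dose, in every test run; inconclusive means test runs disagree, some active and some inactive; inactive means all test runs inactive, including signal rising instead of falling.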
# Assay: IL-1beta-induced NF-kB reporter signal decrease – LMP1 TES2-inducible cells, luciferase, dry powder, selectivity assay for EBV LMP1 NF-kB inhibitor project, dose response (AID 624360)
# Details: HEK293, 16 h
row,Structure (SMILES),AC35 [nM]
1,CC12CCC3C(CC=C4CC(O)CCC43CO)C1CCC2OC(=O)c1ccccc1 (centres undefined),3880

# Same assay, conditions: HEK293 IL-1beta-induced NF-kB luciferase reporter (LMP1 TES2-inducible cell line), 16 h
row,Structure (SMILES),AC35 [nM]
1,CCC(Sc1nnc2c3ccccc3n(Cc3ccc(Br)cc3)c2n1)C(=O)NCCCN1CCOCC1 (centres undefined),2710
2,O=c1[nH]c(Nc2nc3ccccc3o2)nc2c1CCCC2,107000
3,Cc1ccc(NC(=O)C2CCN(S(=O)(=O)c3ccc4c(c3)NC(=O)C(C)S4)CC2)cc1Cl (centres undefined),3670
4,C/C(=N\NC(=S)N1CCCCC1)c1cccc(C)n1,343
5,C[C@@H]1CN([C@@H](C)CO)C(=O)c2cc(NC(=O)Nc3ccc4c(c3)OCO4)ccc2O[C@H]1CN(C)CC1CCCCC1,2700
6,C[C@H](CO)N1C[C@H](C)[C@@H](CN(C)Cc2ccc(-c3ccccc3)cc2)Oc2ccc(NC(=O)Nc3cccc4ccccc34)cc2CC1=O,4640
7,C[C@H](CO)N1C[C@H](C)[C@@H](CN(C)CC2CC2)OCCCC[C@H](C)Oc2ccc(NC(=O)Nc3cccc4ccccc34)cc2C1=O,1130
8,C/C(=N\NC(=S)N1CCCCC1)c1ccccn1,168
9,C/C(=N\NC(=S)Nc1ccccc1)c1ccccn1,522
10,COc1ccc2[nH]c(C(=O)N/N=C/c3ccc(O)cc3O)cc2c1,6480
11,CCN1CCN(C(c2cccnc2)c2cc(Cl)c3cccnc3c2O)CC1 (centres undefined),5660
12,Nc1ccn([C@@H]2O[C@H](CO)[C@@H](O)C2O)c(=O)n1 (some centres undefined),15800
13,Fc1ccc2c(c1)c1nnc(SCCN3CCOCC3)nc1n2Cc1ccccc1,4490
14,C/C=C/C/C=C/CCC(=O)[C@H]1O[C@H]1C(N)=O,7670
15,C/C(=N\NC(=S)N1CCC1)c1ccccn1,287
16,C[C@@H]1CCCCO[C@H](CN(C)C(=O)NC2CCCCC2)[C@H](C)CN([C@@H](C)CO)C(=O)c2cc(NC(=O)C3CCCCC3)ccc2O1,11700

row,Structure (SMILES),AC35 [nM]
1,C[C@@H]1CN([C@@H](C)CO)C(=O)c2cccc(NC(=O)Nc3cccc4ccccc34)c2O[C@H]1CN(C)C(=O)Nc1ccc(C(F)(F)F)cc1,11400
2,C/C(=N\NC(=S)N1CC2CCC(CC2)C1)c1cnccn1,86.2
3,O=C1/C(=C/c2ccncc2)SC(=S)N1Cc1ccccc1,91500
4,C[C@H](CO)N1C[C@H](C)[C@H](CN(C)C(=O)Nc2ccc(C(F)(F)F)cc2)OCCCC[C@H](C)Oc2ccc(NC(=O)Nc3ccc(F)cc3)cc2C1=O,7850
5,CC1CN(C(=O)CSc2nnc3c4ccccc4n(Cc4cccc(Cl)c4)c3n2)CCN1C(=O)c1ccccc1F (centres undefined),9280
6,Cc1ccc(S(=O)(=O)Nc2ccc3c(c2)C(=O)N([C@@H](C)CO)C[C@H](C)[C@@H](CN(C)C(=O)CCC(F)(F)F)OCCCC[C@H](C)O3)cc1,488
7,CC(C)=CCN(C(=O)C#Cc1ccccc1)[C@H](CO)c1ccccc1,2500
8,S=C(NCc1ccccn1)N/N=C/c1ccccn1,1980
9,COc1ccccc1[C@]1(C)ON(c2ccccc2C(F)(F)F)C1=O,8170
10,C/C(=N\NC(=S)N1CCCC1)c1ccccn1,156
11,COc1ccc2nc(Nc3nc(C)c(CCC(C)C)c(=O)[nH]3)nc(C)c2c1,2720
12,Cc1cc(NC(=O)c2ccc3c(c2)OCCO3)no1,111000
13,CCCSc1nnc2c3ccccc3n(Cc3ccccc3)c2n1,2610
14,C/C(=N\NC(=S)N1CCCCCC1)c1ccccn1,213
15,C/C(=N\NC(=S)N1CC2CCC(CC2)C1)c1ccccn1,913
16,S=C(N/N=C(\c1ccccc1)c1ccccn1)N(Cc1ccccn1)Cc1ccccn1,769

# Same assay, conditions: HEK293 IL-1beta-induced NF-kB luciferase reporter (LMP1 TES2-inducible cell line), 16 h; at 15 µM (top of the series)
row,Structure (SMILES),"activity change, negative = inhibition"
1,C=C1C[C@]23C[C@@]1(O)CC[C@H]2[C@@]12C=C[C@H](O)[C@@](C)(C(=O)O1)[C@H]2[C@@H]3C(=O)O,13.6% (inactive)

# Same assay, conditions: HEK293 IL-1beta-induced NF-kB luciferase reporter (LMP1 TES2-inducible cell line), 16 h; at 26 µM (top of the series)
row,Structure (SMILES),"activity change, negative = inhibition"
1,C[C@@H]1CN([C@@H](C)CO)C(=O)c2cc(NC(=O)Nc3ccc(C(F)(F)F)cc3)ccc2O[C@@H](C)CCCCO[C@H]1CN(C)Cc1ccc(C(F)(F)F)cc1,12.7% (inactive)
2,Cc1c(NC(=O)c2cccc(NC(=O)COc3ccccc3C#N)c2)c(=O)n(-c2ccccc2)n1C,14.8% (inactive)
3,COc1ccc(-c2cc3nc4n(c(=O)c3s2)CCC4)cc1,19.5% (inactive)
4,CCc1sc(C(=O)Nc2ncccc2O)cc1C,6.99% (inactive)
5,C[C@@H]1CCCCO[C@H](CN(C)CC2CCCCC2)[C@H](C)CN([C@@H](C)CO)C(=O)c2cc(NC(=O)NC3CCCCC3)ccc2O1,-0.708% (inactive)
6,C=CCN1Cc2ccccc2[C@@H]2OC(c3ccc(OCCCO)cc3)=N[C@]2(CCC(=O)OC(C)(C)C)C1=O,37.8% (inactive)
7,C[C@@H]1CCCCO[C@H](CN(C)S(=O)(=O)c2ccccc2)[C@@H](C)CN([C@@H](C)CO)C(=O)c2cc(N(C)C)ccc2O1,9.13% (inactive)
8,CCc1ccc(/C=C2\SC(=S)N(CCCC(=O)Nc3ccccn3)C2=O)cc1,40.6% (inactive)
9,COc1ccc(C(=O)Nc2ccc3[nH]ccc3c2)cc1,20.3% (inactive)
10,c1ccc(-c2cn3c4c(sc3n2)CCCC4)cc1,8.88% (inactive)
